“Also recorded” adds a separate entry of the source.
System: Japanese patients with R/R iNHL
Test: Phase 1 dose-escalation study: safety and tolerability (TEAEs, DLTs)
Type: in vivo
From the text: Japanese patients aged ≥ 20 years with R/R iNHL histologically confirmed as FL, nodal MZL, extra-nodal MZL of mucosa-associated lymphoid tissue, small lymphocytic lymphoma, lymphoplasmacytic lymphoma, Waldenström’s macroglobulinemia, or equivalent, according to World Health Organization classification, were eligible for this study. Other key eligibility criteria included being PI3K inhibitor therapy-naïve and an Eastern Cooperative Oncology Group performance status of 0 or 1. Further details of inclusion and exclusion criteria are provided in Supplementary Table 1.
This was a multicenter, open-label, dose-escalation, phase 1 study in Japan. All patients received oral zandelisib once daily at the same time each day, at least 1 h before or 2 h after a meal (CS: continuous schedule). Each treatment cycle was 28 days. Definitions of the DLTs described in this study can be found in Supplementary Table 2. The observation period for DLTs was from day 1 of Cycle 1 to day 1 of Cycle 2. Zandelisib was administered until disease progression or unacceptable toxicity. In the event of an AE, patients could be switched to IDT. In the case of disease progression while receiving IDT, patients could be switched back to CS per the investigator’s discretion.
A starting dose of 45 mg was set for investigating patient safety. This study adopted a standard 3 + 3 design. […] If DLTs occurred in 2 or more patients, the study was planned to be suspended pending a safety evaluation. If a DLT occurred in 1 patient, 3 further patients were added to cohort 1. If DLTs occurred in 0/3 or 1/6 patients in cohort 1, dosing in cohort 2 commenced (n = 6; 60 mg/day). If the incidence of DLTs in cohort 2 was ≤ 1/6, the maximum tolerated dose was not determined, and the dose in cohort 2 was to be selected as the recommended Japanese phase 2 dose.
The primary endpoint was the safety [number of patients with treatment-emergent adverse events (TEAEs), based on Common Terminology Criteria for Adverse Events version 5.0] and tolerability (including laboratory values, vital signs, and electrocardiogram performance) of zandelisib in Japanese patients. Hepatobiliary disorder, aspartate/alanine (AST/ALT) increased, diarrhea/colitis, organizing pneumonia, stomatitis, or rash were defined as irAEs in this manuscript. Secondary endpoints included PK (plasma concentrations and PK parameters) and the efficacy of zandelisib. […] The PK parameters for Cycle 1 day 1 and Cycle 2 day 1 were calculated for each patient by non-compartmental analysis. PK parameters included maximum plasma drug concentration (Cmax), area under the plasma concentration–time curve (AUC) from time zero to the last measurable point (AUC0–t), the AUC from time zero to infinity (AUC0-inf), and terminal half-life (t1/2).

CN1CCC(c2ccccc2CC(C)(C)Nc2nc(N3CCOCC3)nc(-n3c(C(F)F)nc4ccccc43)n2)CC1 [zandelisib]
TEAE Infections and infestations (SOC), All grades (60 mg, n = 6): 4 (66.7) n (%)
TEAE Infections and infestations (SOC), Grade ≥ 3 (60 mg, n = 6): 0 n (%)
TEAE Infusion site extravasation, All grades (60 mg, n = 6): 0 n (%)
TEAE Infusion site extravasation, Grade ≥ 3 (60 mg, n = 6): 0 n (%)
TEAE Insomnia, All grades (60 mg, n = 6): 0 n (%)
TEAE Insomnia, Grade ≥ 3 (60 mg, n = 6): 0 n (%)
TEAE Investigations (SOC), All grades (60 mg, n = 6): 6 (100.0) n (%)
TEAE Investigations (SOC), Grade ≥ 3 (60 mg, n = 6): 4 (66.7) n (%)
TEAE Joint effusion, All grades (60 mg, n = 6): 0 n (%)
TEAE Joint effusion, Grade ≥ 3 (60 mg, n = 6): 0 n (%)
TEAE Lymphocyte count decreased, All grades (60 mg, n = 6): 1 (16.7) n (%)
TEAE Lymphocyte count decreased, Grade ≥ 3 (60 mg, n = 6): 0 n (%)
TEAE Metabolism and nutrition disorders (SOC), All grades (60 mg, n = 6): 0 n (%)
TEAE Metabolism and nutrition disorders (SOC), Grade ≥ 3 (60 mg, n = 6): 0 n (%)
TEAE Muscle spasms, All grades (60 mg, n = 6): 0 n (%)
TEAE Muscle spasms, Grade ≥ 3 (60 mg, n = 6): 0 n (%)
TEAE Musculoskeletal and connective tissue disorders (SOC), All grades (60 mg, n = 6): 2 (33.3) n (%)
TEAE Musculoskeletal and connective tissue disorders (SOC), Grade ≥ 3 (60 mg, n = 6): 0 n (%)
TEAE Nasopharyngitis, All grades (60 mg, n = 6): 3 (50.0) n (%)
TEAE Nasopharyngitis, Grade ≥ 3 (60 mg, n = 6): 0 n (%)
TEAE Nausea, All grades (60 mg, n = 6): 2 (33.3) n (%)
TEAE Nausea, Grade ≥ 3 (60 mg, n = 6): 0 n (%)
TEAE Nervous system disorders (SOC), All grades (60 mg, n = 6): 0 n (%)
TEAE Nervous system disorders (SOC), Grade ≥ 3 (60 mg, n = 6): 0 n (%)
TEAE Neutrophil count decreased, All grades (60 mg, n = 6): 6 (100.0) n (%)
TEAE Neutrophil count decreased, Grade ≥ 3 (60 mg, n = 6): 4 (66.7) n (%)
TEAE Oral herpes, All grades (60 mg, n = 6): 0 n (%)
TEAE Oral herpes, Grade ≥ 3 (60 mg, n = 6): 0 n (%)
TEAE Organizing pneumonia, All grades (60 mg, n = 6): 0 n (%)
TEAE Organizing pneumonia, Grade ≥ 3 (60 mg, n = 6): 0 n (%)
TEAE Oropharyngeal pain, All grades (60 mg, n = 6): 2 (33.3) n (%)
TEAE Oropharyngeal pain, Grade ≥ 3 (60 mg, n = 6): 0 n (%)
TEAE Pancreatitis, All grades (60 mg, n = 6): 0 n (%)
TEAE Pancreatitis, Grade ≥ 3 (60 mg, n = 6): 0 n (%)
TEAE Pharyngeal paresthesia, All grades (60 mg, n = 6): 1 (16.7) n (%)
TEAE Pharyngeal paresthesia, Grade ≥ 3 (60 mg, n = 6): 0 n (%)
TEAE Pruritus, All grades (60 mg, n = 6): 1 (16.7) n (%)
TEAE Pruritus, Grade ≥ 3 (60 mg, n = 6): 0 n (%)
TEAE Psychiatric disorders (SOC), All grades (60 mg, n = 6): 0 n (%)
TEAE Psychiatric disorders (SOC), Grade ≥ 3 (60 mg, n = 6): 0 n (%)
TEAE Rash maculopapular, All grades (60 mg, n = 6): 4 (66.7) n (%)
TEAE Rash maculopapular, Grade ≥ 3 (60 mg, n = 6): 1 (16.7) n (%)
TEAE Rash, All grades (60 mg, n = 6): 3 (50.0) n (%)
TEAE Rash, Grade ≥ 3 (60 mg, n = 6): 0 n (%)
TEAE Renal and urinary disorders (SOC), All grades (60 mg, n = 6): 0 n (%)
TEAE Renal and urinary disorders (SOC), Grade ≥ 3 (60 mg, n = 6): 0 n (%)
TEAE Renal impairment, All grades (60 mg, n = 6): 0 n (%)
TEAE Renal impairment, Grade ≥ 3 (60 mg, n = 6): 0 n (%)
TEAE Respiratory, thoracic, and mediastinal disorders (SOC), All grades (60 mg, n = 6): 3 (50.0) n (%)
TEAE Respiratory, thoracic, and mediastinal disorders (SOC), Grade ≥ 3 (60 mg, n = 6): 0 n (%)
TEAE Skin and subcutaneous tissue disorders (SOC), All grades (60 mg, n = 6): 6 (100.0) n (%)
TEAE Skin and subcutaneous tissue disorders (SOC), Grade ≥ 3 (60 mg, n = 6): 1 (16.7) n (%)
TEAE Stomatitis, All grades (60 mg, n = 6): 1 (16.7) n (%)
TEAE Stomatitis, Grade ≥ 3 (60 mg, n = 6): 0 n (%)
TEAE Subcutaneous abscess, All grades (60 mg, n = 6): 1 (16.7) n (%)
TEAE Subcutaneous abscess, Grade ≥ 3 (60 mg, n = 6): 0 n (%)
TEAE Tinnitus, All grades (60 mg, n = 6): 0 n (%)
TEAE Tinnitus, Grade ≥ 3 (60 mg, n = 6): 0 n (%)
TEAE Urticaria, All grades (60 mg, n = 6): 0 n (%)
TEAE Urticaria, Grade ≥ 3 (60 mg, n = 6): 0 n (%)
TEAE Vomiting, All grades (60 mg, n = 6): 2 (33.3) n (%)
TEAE Vomiting, Grade ≥ 3 (60 mg, n = 6): 0 n (%)
TEAE WBC count decreased, All grades (60 mg, n = 6): 2 (33.3) n (%)
TEAE WBC count decreased, Grade ≥ 3 (60 mg, n = 6): 0 n (%)
maximum tolerated dose (MTD) (45 and 60 mg/day): not reached
dose-limiting toxicities (DLTs) (45 and 60 mg/day, N = 9): No dose-limiting toxicities were observed; also recorded: No DLTs were reported; also recorded: no DLTs or fatal events were observed
recommended phase 2 dose (RP2D) (Japanese patients): 60 mg/day
Grade 3 irAEs (N = 9): 7 patients
Grade ≤ 3 irAEs (N = 9): All patients experienced Grade ≤ 3 irAEs
Grade ≥ 3 diarrhea (N = 9): 33.3%
Grade ≥ 3 neutrophil count decreased (N = 9): 55.6%
discontinued due to SAEs (N = 9): 3 patients
dosing interrupted due to irAEs (N = 9): 7 patients
dosing interrupted due to neutrophil count decreased (N = 9): 1 patients
incidence of TEAEs ≥ Grade 3 (N = 9): 77.8%
number of serious AEs (SAEs) (N = 9): 6
zandelisib discontinuation due to immune-related toxicities (N = 9): 4 patients
patients with serious AEs (SAEs) (N = 9, all Grade 3, treatment related): 44.4%
incidence of TEAEs in all patients (N = 9, all grades): 100%
TEAE ALT increased, All grades (Total, N = 9): 3 (33.3) n (%)
TEAE ALT increased, Grade ≥ 3 (Total, N = 9): 0 n (%)
TEAE AST increased, All grades (Total, N = 9): 5 (55.6) n (%)
TEAE AST increased, Grade ≥ 3 (Total, N = 9): 0 n (%)
TEAE Abdominal discomfort, All grades (Total, N = 9): 1 (11.1) n (%)
TEAE Abdominal discomfort, Grade ≥ 3 (Total, N = 9): 0 n (%)
TEAE Abdominal pain upper, All grades (Total, N = 9): 1 (11.1) n (%)
TEAE Abdominal pain upper, Grade ≥ 3 (Total, N = 9): 0 n (%)
TEAE Amylase increased, All grades (Total, N = 9): 1 (11.1) n (%)
TEAE Amylase increased, Grade ≥ 3 (Total, N = 9): 0 n (%)
TEAE Anemia, All grades (Total, N = 9): 1 (11.1) n (%)
TEAE Anemia, Grade ≥ 3 (Total, N = 9): 0 n (%)
TEAE Arthralgia, All grades (Total, N = 9): 2 (22.2) n (%)
TEAE Arthralgia, Grade ≥ 3 (Total, N = 9): 0 n (%)
TEAE Back pain, All grades (Total, N = 9): 1 (11.1) n (%)
TEAE Back pain, Grade ≥ 3 (Total, N = 9): 0 n (%)
TEAE Blepharitis, All grades (Total, N = 9): 1 (11.1) n (%)
TEAE Blepharitis, Grade ≥ 3 (Total, N = 9): 0 n (%)
TEAE Blood and lymphatic system disorders (SOC), All grades (Total, N = 9): 1 (11.1) n (%)
TEAE Blood and lymphatic system disorders (SOC), Grade ≥ 3 (Total, N = 9): 0 n (%)
TEAE Blood creatinine increased, All grades (Total, N = 9): 1 (11.1) n (%)
TEAE Blood creatinine increased, Grade ≥ 3 (Total, N = 9): 0 n (%)
TEAE Bradycardia, All grades (Total, N = 9): 1 (11.1) n (%)
TEAE Bradycardia, Grade ≥ 3 (Total, N = 9): 0 n (%)
TEAE CMV test positive, All grades (Total, N = 9): 3 (33.3) n (%)
TEAE CMV test positive, Grade ≥ 3 (Total, N = 9): 0 n (%)
TEAE Cardiac disorders (SOC), All grades (Total, N = 9): 1 (11.1) n (%)
TEAE Cardiac disorders (SOC), Grade ≥ 3 (Total, N = 9): 0 n (%)
TEAE Conjunctivitis, All grades (Total, N = 9): 2 (22.2) n (%)
TEAE Conjunctivitis, Grade ≥ 3 (Total, N = 9): 0 n (%)
TEAE Constipation, All grades (Total, N = 9): 4 (44.4) n (%)
TEAE Constipation, Grade ≥ 3 (Total, N = 9): 0 n (%)
TEAE Cough, All grades (Total, N = 9): 1 (11.1) n (%)
TEAE Cough, Grade ≥ 3 (Total, N = 9): 0 n (%)
TEAE Cytomegalovirus infection, All grades (Total, N = 9): 1 (11.1) n (%)
TEAE Cytomegalovirus infection, Grade ≥ 3 (Total, N = 9): 0 n (%)
TEAE Cytomegalovirus viremia, All grades (Total, N = 9): 1 (11.1) n (%)

Reference: publication PMC9668928, “Zandelisib (ME-401) in Japanese patients with relapsed or refractory indolent non-Hodgkin’s lymphoma: an open-label, multicenter, dose-escalation phase 1 study” (International Journal of Hematology, 2022)
